The source of these data is patent US6030997A, “Acid labile prodrugs” (priority 1998, dated 2000).

The subject of series [1] is Fisher 344 rats. As to the kind of experiment: 7-day once daily repeated intravenous toxicity in Fisher 344 rats: clinical signs, mortality, body weight, necropsy. Type of series: in vivo, rat (Fisher 344). Particulars: i.v. once daily 7 days, ProGenta equimolar to 60 mg/kg Gentamicin or Gentamicin 60 mg/kg; particularly females; especially striking Day 10.
Protocol: All animals received 10 mg/liter of sodium bicarbonate in drinking water. All animals were allowed an additional 3-day recovery period. Final assessment of treatment effects was based on monitoring clinical signs, determinations of body weight, serum creatinine levels and urinary protein content. In addition, all animals were subjected to necropsy at termination of the study.
Series [2] concerns BALB/c mice. Kind of series: Toxicity of daily intravenous injections in BALB/c mice (proteinuria by Dipstick, mortality, gross pathology). Particulars: day 3, Gentamicin 75 mg/kg i.v. daily. Type of series: in vivo, mouse (BALB/c).
Series [3] has as its system kidney. Particulars: rat, in vivo.
Protocol: 3.1 The potential intravenous toxicity of the test article ProGenta (in a dose equimolar to 60 mg/kg of Gentamicin, Example 1) following once daily repeated intravenous administrations during 7 days, was studied in a group of seven male and seven female Fisher 344 rats, in comparison to an identically treated and equally sized group treated with the control article Gentamicin (60 mg/kg), and an untreated control group comprising six male and six female rats. All animals received 10 mg/liter of sodium bicarbonate in drinking water. All animals were allowed an additional 3-day recovery period. Final assessment of treatment effects was based on monitoring clinical signs, determinations of body weight, serum creatinine levels and urinary protein content. In addition, all animals were subjected to necropsy at termination of the study.
Series [4] relates to mice. As to conditions: i.v.; cited from earlier work.

As for Gentamicin, the weight gain entry in series [1] was “a relative reduction in normally expected weight gain”. Also, the mortality entry in series [2] is “the two mice in the Gentamicin group died several hours after the injection”. In addition, in series [3], the proteinuria result is recorded as “reached a peak value” and the urinary protein content entry is given as “markedly increased”. The LD50 in series [4] is 75 mg/kg.

For orientation: LD50 means the dose at which mortality reaches 50%.
